# Columns and labels:
# [1] = system: bacterial collagenase; details: gel exposed to bacterial collagenase plus 10 mM EDTA, EDTA then neutralized with Ca2+; FIG. 8B
# Procedure: (§1) Collagen-degrading enzyme preparations. A collagenolytic enzyme preparation from Clostridium histolyticum (Collagenase type I; Worthington Biochemical Corp, Freehold, N.J.) was used to produce fragmentation of the collagen. […] The bacterial enzyme preparation cleaves intact collagen at numerous sites to produce low molecular weight fragments. Collagenolytic activity was quantified by exposing 1 mg of rat tail (monomeric) collagen to varying concentrations of enzyme preparation for 5 hours at 37° C. Intact collagen exposed to buffer alone served as control. At the end of the incubation period, the control collagen and enzyme-treated collagen were resolved on SDS-PAGE and stained with Coomassie brilliant blue. Laser densitometry was used to quantify α1(I) and α2(I) bands in the intact and digested preparations. […] Human basal cell carcinoma tissue was used as a source of collagen-degrading enzymes from human skin. Fresh tumor specimens obtained at surgery were cut into 2-mm pieces, and 6-8 tissue pieces incubated for 72 hours in 0.5 ml of Ca^2+-supplemented MCDB-153. Incubation was at 37° C. and 5% CO2. At the end of the incubation period, the culture fluid was obtained and used as the enzyme source.
# [2] = system: collagen-degrading enzymes from human skin (basal cell carcinoma conditioned medium)
# Procedure: as §1
# [3] = system: collagenolytic enzyme preparation from Clostridium histolyticum (Collagenase type I)
# Procedure: as §1
# [4] = molecular target: MMP-9 (Homo sapiens, UniProt P14780); details: from Whittaker et al., Chem. Rev. 1999; cited from earlier work
# [5] = molecular target: T1, MMP-2 (Homo sapiens, UniProt P08253); details: from Whittaker et al., Chem. Rev. 1999; cited from earlier work
# T1 sequence (P08253 110-660): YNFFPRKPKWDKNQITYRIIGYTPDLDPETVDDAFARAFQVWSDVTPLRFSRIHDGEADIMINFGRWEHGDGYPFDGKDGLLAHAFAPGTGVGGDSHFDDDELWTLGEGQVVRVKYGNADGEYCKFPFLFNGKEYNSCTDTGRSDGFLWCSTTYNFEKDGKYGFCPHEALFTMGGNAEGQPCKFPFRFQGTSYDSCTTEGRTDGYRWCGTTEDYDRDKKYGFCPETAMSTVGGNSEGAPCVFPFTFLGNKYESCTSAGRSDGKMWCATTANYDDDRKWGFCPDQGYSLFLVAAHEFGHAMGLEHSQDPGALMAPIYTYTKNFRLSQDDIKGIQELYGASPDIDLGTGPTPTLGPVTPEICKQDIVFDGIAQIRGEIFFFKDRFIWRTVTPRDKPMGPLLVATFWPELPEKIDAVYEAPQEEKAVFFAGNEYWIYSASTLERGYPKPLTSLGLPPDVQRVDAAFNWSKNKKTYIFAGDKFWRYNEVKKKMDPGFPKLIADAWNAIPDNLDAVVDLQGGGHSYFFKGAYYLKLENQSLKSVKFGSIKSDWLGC
# [6] = system: human skin collagenase; experiment: Fibroblast contraction of collagen gels treated with human skin collagenase; format: cell-based; details: gels treated with human skin collagenase in the presence of 10 μg of aprotinin; FIG. 8B
# Procedure: Preparation of polymerized collagen gels. […] During this period, the collagen formed a polymerized gel.
# Collagen-degrading enzyme preparations. […] Intact collagen exposed to buffer alone served as control. […] Incubation was at 37° C. and 5% CO2.
# Chain of MMP-9 (P14780 94-707): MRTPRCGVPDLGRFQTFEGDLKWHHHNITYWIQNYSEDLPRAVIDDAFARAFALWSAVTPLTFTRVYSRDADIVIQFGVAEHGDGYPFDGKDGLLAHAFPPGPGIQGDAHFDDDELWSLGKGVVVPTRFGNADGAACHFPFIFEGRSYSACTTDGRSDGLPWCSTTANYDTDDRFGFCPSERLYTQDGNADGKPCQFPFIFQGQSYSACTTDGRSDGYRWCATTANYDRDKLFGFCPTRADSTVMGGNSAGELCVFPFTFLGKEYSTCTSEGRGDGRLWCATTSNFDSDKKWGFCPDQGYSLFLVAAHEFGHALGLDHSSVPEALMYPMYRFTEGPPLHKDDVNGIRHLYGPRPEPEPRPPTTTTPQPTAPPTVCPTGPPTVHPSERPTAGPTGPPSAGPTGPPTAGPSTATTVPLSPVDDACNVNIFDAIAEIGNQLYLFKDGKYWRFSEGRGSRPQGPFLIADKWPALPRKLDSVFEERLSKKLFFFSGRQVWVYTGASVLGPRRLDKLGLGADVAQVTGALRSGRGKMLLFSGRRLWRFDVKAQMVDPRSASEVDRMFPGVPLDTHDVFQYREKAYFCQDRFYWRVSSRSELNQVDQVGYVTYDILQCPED
compound,measurement,setting,value
"O=C(O)CN(CCN(CC(=O)O)CC(=O)O)CC(=O)O [EDTA, ethylene diamine tetraacetic acid]",collagen contraction,[1],no collagen contraction
same,zymographic activities,"[2]; 10 mM EDTA in the incubation buffer, gelatin, collagen and β-casein",suppressed zymographic activities
same,collagen-degradation,[2]; 10 mM EDTA in the reaction mixture,suppressed collagen-degradation
same,reactivity in zymography,"[3]; 10 mM EDTA included in the overnight incubation buffer, gelatin and monomeric collagen",Reactivity was lost
same,collagen breakdown,"[3]; 10 mM EDTA included in the reaction mixture, 1 mg rat tail monomeric collagen, 5 hours at 37° C.",no detectable collagen breakdown
CN1C(=O)N(C[C@H](C(=O)NO)[C@@H](CC2CCCC2)C(=O)N2CCCCC2)C(=O)C1(C)C [compound 52],IC50,[4],59 nM
same,IC50,[5],154 nM
aprotinin,collagen contraction,[6],not

# Reference: patent US20020119107A1, “Method for protecting and restoring skin using selective MMP inhibitors” (priority 2000, published 2002)
